In US9376425B2, “Heterocyclic compounds as MDM2 inhibitors for the treatment of cancer” (AMGEN INC., priority 2011, dated 2016):

molecular target: T1, human MDM2 (GST-hMDM2 1-188), interaction with biotinylated-p53 (1-83) (Homo sapiens, UniProt Q00987); assay: improved HTRF assay (HTRF2 assay), inhibition of HDM2-p53 interaction; format: binding; settings: 0.2 nM GST-hMDM2, 0.5 nM biotinylated-p53, 100 mM KF
T1 construct: Amino acid residues 1-188 of human MDM2 were expressed; made in house; host or cells: Escherichia coli
How it was run: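 Time-resolved fluorescence (HTRF) read after >4 h equilibration with SA-XLent/anti-GST cryptate/KF detection reagents. Reaction: compound plus GST-hMDM2 for 20 min at room temperature, then E. coli-expressed biotinylated p53 residues 1-83 for 60 min, 2% DMSO final. Inhibition expressed versus nutlin-3.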

T1 sequence (Q00987 1-188): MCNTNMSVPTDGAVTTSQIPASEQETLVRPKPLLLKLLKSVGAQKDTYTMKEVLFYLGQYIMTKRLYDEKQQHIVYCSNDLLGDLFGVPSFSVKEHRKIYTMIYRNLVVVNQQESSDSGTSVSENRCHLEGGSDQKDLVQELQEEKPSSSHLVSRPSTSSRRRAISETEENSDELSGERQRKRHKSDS

How did the IC50 turn out when `C[C@H]1CCCN1S(=O)(=O)C[C@H](C1CC1)N1C(=O)[C@@](C)(CC(=O)O)O[C@H](c2cccc(Cl)c2)[C@H]1c1ccc(Cl)cc1` (single isomer, unassigned) [Example 337, 2-((2R,5R,6R)-6-(3-Chlorophenyl)-5-(4-chlorophenyl)-4-((S)-1-cyclopropyl-2-(((S)-2-methylpyrrolidin-1-yl)sulfonyl)ethyl)-2-methyl-3-oxomorpholin-2-yl)acetic acid or 2-((2S,5R,6R)-6-(3-chlorophenyl)-5-(4-chlorophenyl)-4-((S)-1-cyclopropyl-2-(((S)-2-methylpyrrolidin-1-yl)sulfonyl)ethyl)-2-methyl-3-oxomorpholin-2-yl)acetic acid] was run?
The IC50 was 50 nM.

For `CC(C)(C)S(=O)(=O)C[C@H](CC(F)(F)F)N1C(=O)[C@@](C)(CC(=O)O)O[C@H](c2cccc(Cl)c2)[C@H]1c1ccc(Cl)cc1` (single isomer, unassigned) [Example 340, 2-((2R,5R,6R)-4-((S)-1-(tert-Butylsulfonyl)-4,4,4-trifluorobutan-2-yl)-6-(3-chlorophenyl)-5-(4-chlorophenyl)-2-methyl-3-oxomorpholin-2-yl)acetic acid or 2-((2S,5R,6R)-4-((S)-1-(tert-butylsulfonyl)-4,4,4-trifluorobutan-2-yl)-6-(3-chlorophenyl)-5-(4-chlorophenyl)-2-methyl-3-oxomorpholin-2-yl)acetic acid], which IC50 is on record?
The IC50 was 28 nM.

Which IC50 does the source give for `CC(C)(C)S(=O)(=O)C[C@H](CC(F)(F)F)N1C(=O)[C@@](C)(CC(=O)O)O[C@H](c2cccc(Cl)c2)[C@H]1c1ccc(Cl)cc1` (single isomer, unassigned) [Example 341, 2-((2R,5R,6R)-4-((S)-1-(tert-Butylsulfonyl)-4,4,4-trifluorobutan-2-yl)-6-(3-chlorophenyl)-5-(4-chlorophenyl)-2-methyl-3-oxomorpholin-2-yl)acetic acid or 2-((2S,5R,6R)-4-((S)-1-(tert-butylsulfonyl)-4,4,4-trifluorobutan-2-yl)-6-(3-chlorophenyl)-5-(4-chlorophenyl)-2-methyl-3-oxomorpholin-2-yl)acetic acid] here?
Its IC50 is < 1 nM.

`CC[C@]1(CC(=O)O)O[C@H](c2cccc(Cl)c2)[C@@H](c2ccc(Cl)cc2)N([C@@H](CC(F)(F)F)CS(=O)(=O)C(C)(C)C)C1=O` (single isomer, unassigned) [Example 342, 2-((2R,5R,6R)-4-((S)-1-(tert-Butylsulfonyl)-4,4,4-trifluorobutan-2-yl)-6-(3-chlorophenyl)-5-(4-chlorophenyl)-2-ethyl-3-oxomorpholin-2-yl)acetic acid or 2-((2S,5R,6R)-4-((S)-1-(tert-butylsulfonyl)-4,4,4-trifluorobutan-2-yl)-6-(3-chlorophenyl)-5-(4-chlorophenyl)-2-ethyl-3-oxomorpholin-2-yl)acetic acid] was tested. Which IC50 did it give?
Its IC50 is 104 nM.

How did the IC50 turn out when `CC[C@]1(CC(=O)O)O[C@H](c2cccc(Cl)c2)[C@@H](c2ccc(Cl)cc2)N([C@@H](CC(F)(F)F)CS(=O)(=O)C(C)(C)C)C1=O` (single isomer, unassigned) [Example 343, 2-((2R,5R,6R)-4-((S)-1-(tert-Butylsulfonyl)-4,4,4-trifluorobutan-2-yl)-6-(3-chlorophenyl)-5-(4-chlorophenyl)-2-ethyl-3-oxomorpholin-2-yl)acetic acid or 2-((2S,5R,6R)-4-((S)-1-(tert-butylsulfonyl)-4,4,4-trifluorobutan-2-yl)-6-(3-chlorophenyl)-5-(4-chlorophenyl)-2-ethyl-3-oxomorpholin-2-yl)acetic acid] was run?
The IC50 was 1 nM.

With `CC(C)(C)S(=O)(=O)C[C@H](C1CC1)N1C(=O)[C@@H](CC(=O)NCC(F)(F)F)O[C@H](c2cccc(Cl)c2)[C@H]1c1ccc(Cl)cc1` (single isomer, unassigned) [Example 346, 2-((2R,5R,6R)-4-((S)-2-(tert-Butylsulfonyl)-1-cyclopropylethyl)-6-(3-chlorophenyl)-5-(4-chlorophenyl)-3-oxomorpholin-2-yl)-N-(2,2,2-trifluoroethyl)acetamide or 2-((2S,5R,6R)-4-((S)-2-(tert-butylsulfonyl)-1-cyclopropylethyl)-6-(3-chlorophenyl)-5-(4-chlorophenyl)-3-oxomorpholin-2-yl)-N-(2,2,2-trifluoroethyl)acetamide] as the compound, how does the IC50 read?
Its IC50 is 21 nM.

Which IC50 does the source give for `CC(C)(C)S(=O)(=O)C[C@H](C1CC1)N1C(=O)[C@@H](CC(=O)NCC(F)(F)F)O[C@H](c2cccc(Cl)c2)[C@H]1c1ccc(Cl)cc1` (single isomer, unassigned) [Example 347, 2-((2R,5R,6R)-4-((S)-2-(tert-Butylsulfonyl)-1-cyclopropylethyl)-6-(3-chlorophenyl)-5-(4-chlorophenyl)-3-oxomorpholin-2-yl)-N-(2,2,2-trifluoroethyl)acetamide or 2-((2S,5R,6R)-4-((S)-2-(tert-butylsulfonyl)-1-cyclopropylethyl)-6-(3-chlorophenyl)-5-(4-chlorophenyl)-3-oxomorpholin-2-yl)-N-(2,2,2-trifluoroethyl)acetamide] here?
Its IC50 is 4 nM.

For `CC(C)(C)S(=O)(=O)C[C@H](C1CC1)N1C(=O)[C@@H](CC(=O)NCC#N)O[C@H](c2cccc(Cl)c2)[C@H]1c1ccc(Cl)cc1` (single isomer, unassigned) [Example 348, 2-((2R,5R,6R)-4-((S)-2-(tert-Butylsulfonyl)-1-cyclopropylethyl)-6-(3-chlorophenyl)-5-(4-chlorophenyl)-3-oxomorpholin-2-yl)-N-(cyanomethyl)acetamide or 2-((2S,5R,6R)-4-((S)-2-(tert-butylsulfonyl)-1-cyclopropylethyl)-6-(3-chlorophenyl)-5-(4-chlorophenyl)-3-oxomorpholin-2-yl)-N-(cyanomethyl)acetamide], which IC50 is on record?
Its IC50 is 5 nM.

`CC(C)(C)S(=O)(=O)C[C@H](C1CC1)N1C(=O)[C@@H](CC(=O)NCC#N)O[C@H](c2cccc(Cl)c2)[C@H]1c1ccc(Cl)cc1` (single isomer, unassigned) [Example 349, 2-((2R,5R,6R)-4-((S)-2-(tert-Butylsulfonyl)-1-cyclopropylethyl)-6-(3-chlorophenyl)-5-(4-chlorophenyl)-3-oxomorpholin-2-yl)-N-(cyanomethyl)acetamide or 2-((2S,5R,6R)-4-((S)-2-(tert-butylsulfonyl)-1-cyclopropylethyl)-6-(3-chlorophenyl)-5-(4-chlorophenyl)-3-oxomorpholin-2-yl)-N-(cyanomethyl)acetamide] was tested. Which IC50 did it give?
The IC50 was 1 nM.

`CC(C)(C)S(=O)(=O)C[C@H](C1CC1)N1C(=O)[C@@H](CC(=O)Nc2ccccc2)O[C@H](c2cccc(Cl)c2)[C@H]1c1ccc(Cl)cc1` (single isomer, unassigned) [Example 350, 2-((2R,5R,6R)-4-((S)-2-(tert-Butylsulfonyl)-1-cyclopropylethyl)-6-(3-chlorophenyl)-5-(4-chlorophenyl)-3-oxomorpholin-2-yl)-N-phenylacetamide or 2-42S,5R,6R)-4-((S)-2-(tert-butylsulfonyl)-1-cyclopropylethyl)-6-(3-chlorophenyl)-5-(4-chlorophenyl)-3-oxomorpholin-2-yl)-N-phenylacetamide] was tested. Which IC50 did it give?
The IC50 was 16 nM.

For `CC(C)(C)S(=O)(=O)C[C@H](C1CC1)N1C(=O)[C@@H](CC(=O)Nc2ccccc2)O[C@H](c2cccc(Cl)c2)[C@H]1c1ccc(Cl)cc1` (single isomer, unassigned) [Example 351, 2-((2R,5R,6R)-4-((S)-2-(tert-Butylsulfonyl)-1-cyclopropylethyl)-6-(3-chlorophenyl)-5-(4-chlorophenyl)-3-oxomorpholin-2-yl)-N-phenylacetamide or 2-((2S,5R,6R)-4-((S)-2-(tert-butylsulfonyl)-1-cyclopropylethyl)-6-(3-chlorophenyl)-5-(4-chlorophenyl)-3-oxomorpholin-2-yl)-N-phenylacetamide], which IC50 is on record?
The IC50 was 4 nM.

For `CC(C)(C)S(=O)(=O)C[C@H](C1CC1)N1C(=O)[C@@H](CC(=O)Nc2ccccc2F)O[C@H](c2cccc(Cl)c2)[C@H]1c1ccc(Cl)cc1` (single isomer, unassigned) [Example 352, 2-((2R,5R,6R)-4-((S)-2-(tert-Butylsulfonyl)-1-cyclopropylethyl)-6-(3-chlorophenyl)-5-(4-chlorophenyl)-3-oxomorpholin-2-yl)-N-(2-fluorophenyl)acetamide or 2-((2S,5R,6R)-4-((S)-2-(tert-butylsulfonyl)-1-cyclopropylethyl)-6-(3-chlorophenyl)-5-(4-chlorophenyl)-3-oxomorpholin-2-yl)-N-(2-fluorophenyl)acetamide], which IC50 is on record?
The IC50 was 25 nM.

`CC(C)(C)S(=O)(=O)C[C@H](C1CC1)N1C(=O)[C@@H](CC(=O)Nc2ccccc2F)O[C@H](c2cccc(Cl)c2)[C@H]1c1ccc(Cl)cc1` (single isomer, unassigned) [Example 353, 2-((2R,5R,6R)-4-((S)-2-(tert-Butylsulfonyl)-1-cyclopropylethyl)-6-(3-chlorophenyl)-5-(4-chlorophenyl)-3-oxomorpholin-2-yl)-N-(2-fluorophenyl)acetamide or 2-((2S,5R,6R)-4-((S)-2-(tert-butylsulfonyl)-1-cyclopropylethyl)-6-(3-chlorophenyl)-5-(4-chlorophenyl)-3-oxomorpholin-2-yl)-N-(2-fluorophenyl)acetamide] was tested. Which IC50 did it give?
The IC50 was 9 nM.

With `CC(C)(C)S(=O)(=O)C[C@H](C1CC1)N1C(=O)[C@@H](CC(=O)Nc2ccccn2)O[C@H](c2cccc(Cl)c2)[C@H]1c1ccc(Cl)cc1` (single isomer, unassigned) [Example 354, 2-((2R,5R,6R)-4-((S)-2-(tert-Butylsulfonyl)-1-cyclopropylethyl)-6-(3-chlorophenyl)-5-(4-chlorophenyl)-3-oxomorpholin-2-yl)-N-(pyridin-2-yl)acetamide or 2-((2S,5R,6R)-4-((S)-2-(tert-butylsulfonyl)-1-cyclopropylethyl)-6-(3-chlorophenyl)-5-(4-chlorophenyl)-3-oxomorpholin-2-yl)-N-(pyridin-2-yl)acetamide] as the compound, how does the IC50 read?
Its IC50 is 2 nM.
